This assay deals with T1, EphB4 (Homo sapiens, UniProt P54760).
T1 construct: to generate full-length EphB4 containing a Myc-His tag at the C-terminus; expressed in transfected cells; EphB4-CHO)
T1 sequence (P54760 16-987): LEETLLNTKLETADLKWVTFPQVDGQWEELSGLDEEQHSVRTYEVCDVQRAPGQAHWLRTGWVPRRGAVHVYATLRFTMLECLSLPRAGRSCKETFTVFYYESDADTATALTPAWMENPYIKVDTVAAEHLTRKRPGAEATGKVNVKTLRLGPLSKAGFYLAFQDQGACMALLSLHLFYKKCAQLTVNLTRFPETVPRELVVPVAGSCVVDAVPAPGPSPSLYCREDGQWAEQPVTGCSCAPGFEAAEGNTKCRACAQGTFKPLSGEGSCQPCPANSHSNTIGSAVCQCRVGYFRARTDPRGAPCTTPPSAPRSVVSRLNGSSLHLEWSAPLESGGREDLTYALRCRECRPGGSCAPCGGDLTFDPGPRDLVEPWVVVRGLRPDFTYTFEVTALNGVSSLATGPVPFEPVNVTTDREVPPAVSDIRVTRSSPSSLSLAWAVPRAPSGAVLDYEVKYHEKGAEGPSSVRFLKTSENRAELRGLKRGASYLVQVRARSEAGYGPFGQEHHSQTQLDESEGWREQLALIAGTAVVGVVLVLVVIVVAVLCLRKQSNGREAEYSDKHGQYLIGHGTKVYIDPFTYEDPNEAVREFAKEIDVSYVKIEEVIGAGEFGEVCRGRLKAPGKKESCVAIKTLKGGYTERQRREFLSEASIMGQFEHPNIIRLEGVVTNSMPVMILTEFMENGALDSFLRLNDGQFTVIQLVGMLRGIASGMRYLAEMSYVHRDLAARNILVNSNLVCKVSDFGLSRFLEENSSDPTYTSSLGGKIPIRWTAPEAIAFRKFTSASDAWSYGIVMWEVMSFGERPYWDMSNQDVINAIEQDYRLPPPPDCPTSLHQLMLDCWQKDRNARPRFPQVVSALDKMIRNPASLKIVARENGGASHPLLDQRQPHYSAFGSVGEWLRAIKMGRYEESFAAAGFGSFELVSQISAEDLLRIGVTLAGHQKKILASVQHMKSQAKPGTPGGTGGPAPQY
Briefly: In vitro EphB4 cell assay (EphB4 phosphorylation in EphB4-CHO cells, sandwich ELISA). The assay is classed as cell-based. The note with it: stimulated with clustered ephrin-B2, read-out: IC50 in assay B. The procedure:
B) In vitro EphB4 Cell Assay
The assay identifies inhibitors of cellular EphB4 by measuring a decrease in phosphorylation of EphB4 following treatment of cells with compound. The endpoint assay used a sandwich ELISA to detect EphB4 phosphorylation status. Briefly, Myc-tagged EphB4 from treated cell lysate was captured on the ELISA plate via an anti-c-Myc antibody. The phosphorylation status of captured EphB4 was then measured using a generic phosphotyrosine antibody conjugated to HRP via a colourimetric output catalysed by HRP, with level of EphB4 phosphorylation directly proportional to the colour intensity. Absorbance was measured spectrophotometrically at 450 nm.
Full length human EphB4 (Swiss-Prot Acc. No. P54760) was cloned using standard techniques from cDNA prepared from HUVEC using RT-PCR. The cDNA fragment was then sub-cloned into a pcDNA3.1 expression vector containing a Myc-His epitope tag to generate full-length EphB4 containing a Myc-His tag at the C-terminus (Invitrogen Ltd. Paisley, UK). CHO-K^1 cells (LGC Promochem, Teddington, Middlesex, UK, Catalogue No. CCL-61) were maintained in HAM's F12 medium (Sigma-Aldrich Company Ltd, Gillingham, Dorset SP8 4XT, Catalogue No. N4888) containing 10% heat-inactivated foetal calf serum (PAA lab GmbH, Pasching, Austria Catalogue No. PAA-A15-043) and 1% glutamax-1 (Invitrogen Ltd., Catalogue No. 35050-038) at 37° C. with 5% CO2. […]

We go through 1 compound from patent US7718653B2, “Pyrimidine derivatives for inhibiting Eph receptors” (AstraZeneca AB, priority 2007, dated 2010).

In the case of `c1cc(Nc2ccnc(Nc3cc(N4CCOCC4)nc(N4CCOCC4)c3)n2)c2cn[nH]c2c1` [Example 3, N2-(2,6-dimorpholinopyridin-4-yl)-N4-(1H-indazol-4-yl)pyrimidine-2,4-diamine], the IC50 stood at 26 nM.
